Laboratory results published in patent publication US8143212B2 (Vicuron Pharmaceuticals Inc., priority 2002, dated 2012).
In brackets after ≈: the same amount, converted by molar mass. Several values for one entry are separate records, joined by “and”; a condition that tells them apart may be missing. Equal entries are not always repeated. Where two headings read alike, the source gives them in different places.

How the values were obtained:
S haemolyticus = assay: MIC, microbiological activity (Table 3); type: cell-based; conditions: L 602 S haemolyticus clin. isolate
Staph. aureus = assay: ED50 against Staph. aureus murine septicaemias (Table 2); type: in vivo
P aeruginosas = assay: MIC, microbiological activity (Table 3); type: cell-based; conditions: L 4 P aeruginosas ATCC10145
S aureus = assay: MIC, microbiological activity (Tables 2, 3); type: cell-based
E. faecium Van-A = assay: MIC, microbiological activity (Table 3); type: cell-based; conditions: L 1666 E. faecium Van-A
B subtilis = assay: MIC, microbiological activity (Table 3); type: cell-based; conditions: L 102 B subtilis ATCC
C albicans = assay: MIC, microbiological activity (Table 3); type: cell-based; conditions: L 145 C albicans SKF2270
S pyogenes = assay: MIC, microbiological activity (Table 3); type: cell-based; conditions: L 49 S pyogenes C203
E faecalis = assay: MIC, microbiological activity (Table 3); type: cell-based
S pneumoniae = assay: MIC, microbiological activity (Table 3); type: cell-based; conditions: L 44 S pneumoniae UC41
E coli = assay: MIC, microbiological activity (Table 3); type: cell-based; conditions: G 16440 E coli iperperm
P vulgaris = assay: MIC, microbiological activity (Table 3); type: cell-based; conditions: L 79 P vulgaris
S epidermidis = assay: MIC, microbiological activity (Table 3); type: cell-based; conditions: L 147 S epidermidis
human α-glycoprotein = assay: Protein binding by isothermal titration microcalorimetry (Tables 27, 28); conditions: for Calculated percent Binding: Human α-glycoprotein ([…]10^−5 M)
Method: (§5) Integrated heat effects, after correction for heats of dilution, were analyzed by non-linear regression using a simple single-site binding model with the standard Microcal ORIGIN software package. Raw data (μcal/sec) for each injection were integrated to give the total heat effect per addition, then divided by amount of injectant to give kcal/mole of injectant. The same integration was applied for control dilution effects, and this was subtracted from the actual titration data. This provided a differential of the binding curve in which the extent of binding is proportional to the total heat liberated (or absorbed). This was then analyzed by non-linear regression methods in terms of various standard binding models. The simplest model assumes simple non-competitive binding equilibrium, and gives three parameters:

human albumin = human albumin (Homo sapiens, UniProt P02768); assay: as above; conditions: for Calculated percent Binding: Human albumin (6×10^−4 M)
Chain of human albumin (P02768 25-609): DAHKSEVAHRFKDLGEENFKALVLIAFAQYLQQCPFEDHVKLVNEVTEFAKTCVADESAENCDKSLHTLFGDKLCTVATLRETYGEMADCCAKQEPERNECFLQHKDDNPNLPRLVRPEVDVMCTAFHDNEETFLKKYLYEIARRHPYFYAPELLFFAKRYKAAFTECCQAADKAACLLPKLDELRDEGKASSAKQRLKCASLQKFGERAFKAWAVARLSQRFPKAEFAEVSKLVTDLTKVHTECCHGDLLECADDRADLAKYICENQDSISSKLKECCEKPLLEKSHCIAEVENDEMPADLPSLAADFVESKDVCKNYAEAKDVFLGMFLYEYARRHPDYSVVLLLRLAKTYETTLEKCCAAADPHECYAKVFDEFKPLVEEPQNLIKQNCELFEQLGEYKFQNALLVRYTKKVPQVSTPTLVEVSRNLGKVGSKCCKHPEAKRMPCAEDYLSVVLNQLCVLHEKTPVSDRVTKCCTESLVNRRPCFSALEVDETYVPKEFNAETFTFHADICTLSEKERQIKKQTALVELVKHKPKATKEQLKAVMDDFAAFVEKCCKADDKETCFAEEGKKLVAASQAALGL
Method: as §5

[1] = ESI-MS of multimers in solution (concentration, pH, ionic strength); type: physicochemical
Method: Experiments were performed using an Applied Biosystem API III+ mass spectrometer equipped with a TurboIonSpray source, a Triple Quadrupole analyzer, operating in positive ion mode.
The mass spectra were obtained in electrospray positive mode on a Finnigan LCQ^Deca ion trap instrument previously tuned and calibrated in electrospray mode using Ultramark 1621, caffeine and MRFA (L-metionyl-arginyl-phenilalanyl-arginine).
The mass spectra were obtained in electrospray positive mode on a Finnigan LCQ^Deca ion trap instrument previous tuned and calibrated in electrospray mode using Ultramark 1621, caffeine and MRFA (L-metionyl-arginyl-phenilalanyl-arginine).

[2] = system: N,N′-diacetyl-Lys-D-Ala-D-Ala; assay: Isothermal titration calorimetry of tri-peptide binding, with and without HSA (Table 39); conditions: for Kd: read-out: Kdiss
Method: Antibiotics and peptides were dissolved in aqueous buffer (20 mM Na phosphate, 150 mM NaCl, pH 7.4) containing HSA, with gentle stirring immediately before each experiment. Peptide concentrations were determined by weight. […] HSA concentrations were determined by UV absorbance (HSA, ε280=37,700; A280^1%=5.44). Spectra were recorded at room temperature in 1 cm pathlength quartz cuvettes using Shimadzu UV-160A or UV-1601 spectrophotometers, with samples diluted quantitatively with buffer if necessary to give absorbance in the 0.1-1 A range.
Isothermal titration calorimetry was performed using a Microcal VP-ITC instrument at 25° C. and 37° C. using standard operating procedures. […] Samples were degassed gently prior to loading to prevent bubble formation in the calorimeter cell. […] Control experiments involved injection of ligand into buffer under identical conditions to determine heats of peptide dilution, and these values were used for correction of raw binding data prior to analysis.

gram-negative bacteria = assay: MIC by broth microdilution (NCCLS) (Table 42); type: cell-based
Method: (§1) Before dissolution, each sample was analyzed by HPLC and quantified.
(§2) The microorganisms used were reference strains obtained from the American Type Culture Collection (ATCC) (Rockville, Md.), SmithKline and French Laboratories (SKF), and the Upjohn Company (UC) (Kalamazoo, Mich.).
(§3) MICs were determined by the broth microdilution methodology following the standard NCCLS procedure (NCCLS Document M7-A6, Vol. 23, No. 2, “Methods for dilution antimicrobial susceptibility tests for bacteria that grow aerobically.” Approved Guideline. January 2003, which can be herein incorporated by reference in its entirety), with or without 30% adult bovine serum (BS) (PAA Laboratories GMBH, Haidmannweg Pasching Austria), using bacterial innocula at approximately 5×10^5 CFU/ml. The media employed included cation-adjusted Müller Hinton broth (Difco Laboratories, Detroit, Mich.) that was used that was adjusted with CaCl2 and MgCl2 to a final concentration of 20 mg/L and 10 mg/L, respectively. Tests were read following 20-24 hours of incubation at 35° C.

[3] = system: Escherichia coli, Proteus vulgaris, Pseudomonas aeruginosas; assay: MIC by broth microdilution (NCCLS) of IsoB0 and reference compounds (Table 44), non-gram-positive bacterial strains; type: cell-based
Method: (§4) MICs were determined by the broth microdilution methodology following the standard NCCLS procedure, with or without 30% bovine serum, using bacterial inocula of approximately 5×10^5 CFU/mL. Tests were read after 20-24 h incubation at 35° C.

[4] = system: Candida albicans SKF 2270; assay: MIC by broth microdilution (NCCLS) (Tables 42, 44); type: cell-based
[5] = system: catheter-related blood stream infection (CR-BSI) due to gram-positive bacterial pathogens; assay: CR-BSI trial: efficacy (overall, clinical, microbiological response); type: in vivo, human; conditions: microbiological ITT population at TOC; dalbavancin 1000 mg Day 1 + 500 mg Day 8 IV; vancomycin 1000 mg IV every 12 hours
Method: Patients with CR-BSI due to suspected or known Gram-positive pathogen(s) who met the inclusion/exclusion criteria were randomized to one of two treatment arms in this open-label, comparative, multi-center study. Dalbavancin was administered once weekly in weekly dalbavancin and comparator (vancomycin) was administered daily in vancomycin. Catheter removal was required for patients with Staphylococcus aureus infection; catheter management was left to the Investigator's discretion for patients with coagulase-negative staphylococci (CoNS) infection. Efficacy was clinically based on the improvement or resolution of clinical signs and symptoms of CR-BSI such that no additional antibacterials were warranted, and microbiologically on the eradication or presence of the baseline or other pathogens.
The treatment lasted for 14 days for patients with S. aureus infection, and 7 to 14 days for all other pathogens. […] Vancomycin was administered intravenously with a 1000 mg dose every 12 hours (or dose-adjusted based on drug levels).
Efficacy was evaluated based on clinical and microbiological responses.

gram positive bacteria [6] = conditions: NCCLS M100 S-12, cited from earlier work
CR-BSI trial: safety = conditions: in vivo
Method: Safety was evaluated by the collection and analysis of data on adverse events (AEs), clinical laboratory tests, physical examinations, vital signs, and ECGs.

[7] = system: panel of gram-positive bacteria; assay: MIC by broth microdilution (NCCLS) of IsoB0 and reference compounds (Table 44); type: cell-based
Method: Müller Hinton broth (Difco Laboratories, Detroit, Mich., USA) adjusted with CaCl2 and MgCl2 to a final concentrations of 20 mg/L and 10 mg/L respectively.
The microorganisms used are reference standard strains from the American Type Culture Collection (ATCC, Rockville, USA), Smith Kline and French Laboratories (SKF) and the Upjohn Company (UC, Kalamazoo, Mich., USA).
as §4

gram positive bacteria [8] = assay: MIC by broth microdilution (NCCLS), with or without 30% bovine serum (Table 42); type: cell-based
Method: as §1, §2, §3

[9] = Candida albicans SKF2270 (Table 44)
[10] = E. faecalis ATCC29212 ref. strain
[11] = S. aureus ATCC 29213 ref. strain
[12] = Enterococcus faecalis ATCC 7080
[13] = Enterococcus faecalis, ATCC29212
[14] = Staphylococcus aureus, ATCC19636
[15] = Staphylococcus aureus, ATCC29213
[16] = Staphylococcus epidermidis, ATCC12228

CN[C@H]1C(=O)N[C@@H]2Cc3ccc(cc3)Oc3cc4cc(c3O)Oc3ccc(cc3Cl)[C@@H](O)[C@@H]3NC(=O)[C@H](NC(=O)[C@@H]4NC(=O)[C@@H](NC2=O)c2cc(cc(O)c2Cl)Oc2cc1ccc2O)c1ccc(O)c(c1)-c1c(O[C@H]2O[C@H](CO)[C@@H](O)[C@H](O)[C@@H]2O)cc(O)cc1[C@@H](C(=O)NCCCN(C)C)NC3=O [MAG]
MIC (S haemolyticus): >32-32 μg/ml | ED50 (Staph. aureus; MRSA Staph. aureus 3817, treatment once within 10 min from infection by sc route): 1.6 mg/kg | ED50 (Staph. aureus; MSSA Staph. aureus Smith 819, treatment once within 10 min from infection by sc route): 0.3 mg/kg | MIC (P aeruginosas): >32->32->32 μg/ml | MIC (S aureus; 3797 S aureus clin. Isolate GISA): 0.5-0.5 μg/ml | MIC (S aureus; 3817 S aureus clin. Isolate): 0.5 µg/mL (≈ 0.343 µM) | MIC (S aureus; L 613 S aureus clin. isolate): 1 µg/mL and 0.5 µg/mL | MIC (S aureus; L 819 S aureus Smith): 0.5 µg/mL and 0.25 µg/mL | MIC (S aureus; L 819 S aureus Smith 50% serum): 1-1-1 μg/ml | MIC (S aureus; MRSA Staph. aureus 3817): 0.5 µg/mL (≈ 0.343 µM) | MIC (S aureus; MSSA Staph. aureus Smith 819): 0.5 µg/mL (≈ 0.343 µM) | MIC (E. faecium Van-A): >32->32->32 μg/ml | MIC (B subtilis): 0.13-0.13 μg/ml | MIC (C albicans): >32->32->32 μg/ml | MIC (S pyogenes): 0.5 µg/mL and 0.25 µg/mL | MIC (E faecalis; L 149 E faecalis): 0.25 µg/mL and 0.5 µg/mL | MIC (E faecalis; L 562 E faecalis clin. isolate): 32->32->32 μg/ml | MIC (S pneumoniae): 1 µg/mL and 0.5 µg/mL | MIC (E coli): 8 µg/mL and 16 µg/mL | MIC (P vulgaris): >32->32->32 μg/ml | MIC (S epidermidis): 0.25 µg/mL and 0.13 µg/mL

Teicoplanin
Calculated percent Binding (human α-glycoprotein; antibiotic 1 μM): 9.6% | Calculated percent Binding (human α-glycoprotein; antibiotic 10 μM): 9.1% | Calculated percent Binding (human α-glycoprotein; antibiotic 100 μM): 6.0% | apparent binding affinity (Ka) (human α-glycoprotein; α-glycoprotein, 25° C.): 0.07 (±0.01) ×10^5 M^−1 | Calculated percent Binding (human albumin; antibiotic 1 μM): 98.3% | Calculated percent Binding (human albumin; antibiotic 10 μM): 98.3% | Calculated percent Binding (human albumin; antibiotic 100 μM): 98.0% | apparent binding affinity (Ka) (human albumin; Human albumin, 25° C., pH 7.4): 0.96 (±0.08) ×10^5 M^−1 | multimers in solution (ESI-MS) [1]: does not show multimeric complexes

CN[C@H](CC(C)C)C(=O)N[C@H]1C(=O)N[C@@H](CC(N)=O)C(=O)N[C@H]2C(=O)N[C@H]3C(=O)N[C@H](C(=O)N[C@H](C(=O)O)c4cc(O)cc(O)c4-c4cc3ccc4O)[C@H](O)c3ccc(c(Cl)c3)Oc3cc2cc(c3O[C@@H]2O[C@H](CO)[C@@H](O)[C@H](O)[C@H]2O[C@H]2C[C@](C)(N)[C@H](O)[C@H](C)O2)Oc2ccc(cc2Cl)[C@H]1O [Vancomycin]
ED50 (Staph. aureus; Staphylococcus aureus, MRSA, sc, 10 min): 1 mg/kg | ED50 (Staph. aureus; Staphylococcus aureus, MSSA, sc, 10 min): 1.7 mg/kg | Kass ([2]; T 10 ° C., [HSA] 0 μM): 690000 M⁻¹ | Kass ([2]; T 25 ° C., [HSA] 0 μM): 340000 M⁻¹ and 360000 M⁻¹ | Kass ([2]; T 25 ° C., with HSA 513 μM): 290000 M⁻¹ | binding to dipeptide (D-Ala-D-Ala) or to Lys-D-Ala-D-Lactate ([2]; absence of serum proteins): no evidence of binding | Kd ([2]; T 10 ° C., [HSA] 0 μM): 1450 nM | Kd ([2]; T 25 ° C., [HSA] 0 μM): 2940 nM and 2780 nM | Kd ([2]; T 25 ° C., with HSA 513 μM): 3450 nM | MIC (S aureus; Staphylococcus aureus, MRSA Staph. aureus 3817, read-out: MIC): 0.5 µg/mL (≈ 0.345 µM) | MIC (S aureus; Staphylococcus aureus, MSSA Staph. aureus Smith 819, read-out: MIC): 0.5 µg/mL (≈ 0.345 µM) | MIC (gram-negative bacteria): > 128 µg/mL | MIC (gram-negative bacteria; Escherichia coli): > 128 µg/mL | MIC (gram-negative bacteria; Escherichia coli, ATCC25922): > 128 µg/mL | MIC (gram-negative bacteria; Proteus vulgaris ATCC 881): > 128 µg/mL | MIC [3]: > 128 µg/mL | MIC ([3]; Escherichia coli): > 128 µg/mL | MIC ([3]; Escherichia coli, ATCC25922): > 128 µg/mL | MIC ([3]; Proteus vulgaris ATCC 881): > 128 µg/mL | MIC [4, 9]: >128 µg/mL | MIC ([4]; Candida albicans, SKF2270): > 128 µg/mL | overall response success rate [5]: 50.0% | Quality control range of MICs for reference strains (gram positive bacteria [6]; [10]): ^2VA 1-4 mg/L | Quality control range of MICs for reference strains (gram positive bacteria [6]; [11]): ^1VA 0.5-2 mg/L | patients with AEs that led to discontinuation of study drug (CR-BSI trial: safety; human, intravenous): 8.8% | SAE considered to be related to study drug (CR-BSI trial: safety): one SAE | MIC ([7]; Bacillus subtilis ATCC 6633): ≤ 0.125 µg/mL | MIC [7, 12]: 1 µg/mL (≈ 0.69 µM) | MIC [7, 13]: 2 µg/mL (≈ 1.38 µM) | MIC [7, 14]: 1 µg/mL (≈ 0.69 µM) | MIC [7, 15]: 2 µg/mL (≈ 1.38 µM) | MIC [7, 16]: 2 µg/mL (≈ 1.38 µM) | MIC ([7]; Streptococcus pneumoniae, UC41): 0.5 µg/mL (≈ 0.345 µM) | MIC ([7]; Streptococcus pyogenes): 1 µg/mL (≈ 0.69 µM) | MIC (gram positive bacteria [8]): 1 µg/mL (≈ 0.69 µM) | MIC (gram positive bacteria [8]; Bacillus subtilis ATCC 6633): ≤ 0.125 µg/mL | MIC (gram positive bacteria [8]; [12]): 1 µg/mL (≈ 0.69 µM) | MIC (gram positive bacteria [8]; [13]): 2 µg/mL (≈ 1.38 µM) | MIC (gram positive bacteria [8]; [14]): 1 µg/mL (≈ 0.69 µM) | MIC (gram positive bacteria [8]; [15]): 2 µg/mL (≈ 1.38 µM) | MIC (gram positive bacteria [8]; [16]): 2 µg/mL (≈ 1.38 µM) | MIC (gram positive bacteria [8]; Streptococcus pneumoniae, UC41): 0.5 µg/mL (≈ 0.345 µM)

CC1(C)S[C@@H]2[C@H](NC(=O)Cc3ccccc3)C(=O)N2[C@H]1C(=O)O [Pen. G]
MIC ([3]; E. coli ATCC25922 ref. strain): >32 µg/mL | MIC ([3]; Escherichia coli SKF 12140): >32 µg/mL | MIC ([3]; Proteus vulgaris ATCC 881): >32 µg/mL | MIC ([3]; Pseudomonas aeruginosas ATCC 10145): >32 µg/mL | MIC [4, 9]: >32 µg/mL | MIC ([7]; Bacillus subtilis ATCC 6633): ≦0.03 mg/L | MIC [7, 10]: 4 µg/mL (≈ 12 µM) | MIC [7, 12]: 32 µg/mL (≈ 95.7 µM) | MIC [7, 11]: 8 µg/mL (≈ 23.9 µM) | MIC ([7]; S. aureus Smith + 30% BS): 0.06 µg/mL | MIC ([7]; S. epidermidis ATCC 12228): >32 µg/mL | MIC ([7]; S. pneumoniae Felton UC41): ≦0.03 mg/L | MIC ([7]; Staphylococcus aureus Smith ATCC 19636): 0.06 µg/mL (≈ 0.179 µM) | MIC ([7]; Streptococcus pyogenes SKF13400): ≦0.03 mg/L
